In ChEMBL document CHEMBL1201862, “PubChem BioAssay data set” (2004):
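Where inhibition never reached the appropriate level, the endpoint shown equals the highest concentration tested. Otherwise, values were interpolated linearly from a five-concentration, 48-hour dose response in 96-well plates. GI50 is the concentration that inhibits growth by half.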 Activity calls are given as the source filed them. Cut-off read from the data, not from the text of the source: active = GI50 up to about 1.1 µM and inactive = higher.

Legend:
Test in all cases: growth of human tumour cells (NCI), 48 h
[1] = test system: EKVX
[2] = test system: SN12C
[3] = test system: MOLT-4
[4] = test system: HOP-92
[5] = test system: COLO 205
[6] = test system: KM12
[7] = test system: UACC-62
[8] = test system: NCI-H23
[9] = test system: OVCAR-5
[10] = test system: RPMI-8226
[11] = test system: ACHN
[12] = test system: K562
[13] = test system: HOP-62
[14] = test system: M14
[15] = test system: SF-539
[16] = test system: NCI/ADR-RES
[17] = test system: SR
[18] = test system: U-251
[19] = test system: SF-295
[20] = test system: SK-MEL-5

| SMILES | GI50 [1] | GI50 [2] | GI50 [3] | GI50 [4] | GI50 [5] | GI50 [6] | GI50 [7] | GI50 [8] | GI50 [9] | GI50 [10] | GI50 [11] | GI50 [12] | GI50 [13] | GI50 [14] | GI50 [15] | GI50 [16] | GI50 [17] | GI50 [18] | GI50 [19] | GI50 [20] |
| --- | --- | --- | --- | --- | --- | --- | --- | --- | --- | --- | --- | --- | --- | --- | --- | --- | --- | --- | --- | --- |
| COc1ccc(-c2cc(O)c3c(C)cc(C)nc3n2)cc1 | 45.2 µM (inactive) | 44.3 µM (inactive) | 16 µM (inactive) | 26.9 µM (inactive) | 20.8 µM (inactive) | 34.8 µM (inactive) | 18.4 µM (inactive) | 28.6 µM (inactive) | > 100 µM (inactive) | 18 µM (inactive) | 44.1 µM (inactive) | 23 µM (inactive) | 26.8 µM (inactive) | 35.3 µM (inactive) | > 100 µM (inactive) | 33.4 µM (inactive) |  |  |  |  |
| O=C(CSc1nnc(-c2ccc(/N=C\c3ccc(Cl)cc3)cc2)o1)Nc1ccccc1 | > 100 µM (inactive) | > 100 µM (inactive) | 39.6 µM (inactive) |  | > 100 µM (inactive) | > 10 µM (inactive) | 73.8 µM (inactive) | 50.2 µM (inactive) |  | 31.6 µM (inactive) | > 100 µM (inactive) | 30.1 µM (inactive) | > 100 µM (inactive) | 76 µM (inactive) |  |  | 33.1 µM (inactive) | 52 µM (inactive) | 94.4 µM (inactive) | 89.9 µM (inactive) |
| COc1cc(-c2ccc(/N=N/c3c(S(=O)(=O)O)cc4cc(S(=O)(=O)O)cc(N)c4c3O)c(OC)c2)ccc1/N=N/c1c(S(=O)(=O)O)cc2cc(S(=O)(=O)O)cc(N)c2c1O | 88.5 µM (inactive) | > 100 µM (inactive) | > 82.6 µM (inactive) | 34 µM (inactive) | > 100 µM (inactive) | > 86.1 µM (inactive) |  | > 100 µM (inactive) | > 100 µM (inactive) | > 100 µM (inactive) |  | > 78.7 µM (inactive) | > 100 µM (inactive) |  | > 100 µM (inactive) | > 100 µM (inactive) |  | > 100 µM (inactive) | > 100 µM (inactive) | > 100 µM (inactive) |
| COc1ccc(C(CC(=O)c2cccs2)C(=O)c2ccc3c(c2)OCO3)cc1 (stereo not drawn) | > 100 µM (inactive) | > 100 µM (inactive) | > 100 µM (inactive) |  | > 100 µM (inactive) | > 100 µM (inactive) | > 100 µM (inactive) | > 100 µM (inactive) |  | 59.8 µM (inactive) | > 100 µM (inactive) | > 100 µM (inactive) | > 100 µM (inactive) | > 100 µM (inactive) | > 100 µM (inactive) | > 100 µM (inactive) |  | > 100 µM (inactive) |  | > 100 µM (inactive) |
| COc1cc[n+](C)cc1 | > 100 µM (inactive) | > 100 µM (inactive) | > 100 µM (inactive) | > 100 µM (inactive) | > 100 µM (inactive) | > 100 µM (inactive) | > 100 µM (inactive) | > 100 µM (inactive) | > 100 µM (inactive) | > 100 µM (inactive) |  | > 100 µM (inactive) | > 100 µM (inactive) |  | > 100 µM (inactive) | > 100 µM (inactive) |  | > 100 µM (inactive) | > 100 µM (inactive) | > 100 µM (inactive) |
| O=c1cc(O)ccn1C1C=C(CO)C(O)C1O (stereo not drawn) |  | 586 µM (inactive) |  | 192 µM (inactive) |  | > 625 µM (inactive) | > 625 µM (inactive) |  |  | 411 µM (inactive) |  |  | > 625 µM (inactive) |  | > 625 µM (inactive) | > 625 µM (inactive) |  | > 625 µM (inactive) | > 625 µM (inactive) | > 625 µM (inactive) |
| CN1CC(c2ccccc2)N(CCCCN2CC(c3ccccc3)N(C)CC2c2ccccc2)CC1c1ccccc1 (stereo not drawn) | 59 µM (inactive) | 46.5 µM (inactive) | 23.2 µM (inactive) | 26.8 µM (inactive) | 28.8 µM (inactive) | 50.5 µM (inactive) | 30.7 µM (inactive) |  | > 100 µM (inactive) |  | > 100 µM (inactive) | 19.3 µM (inactive) | 28.4 µM (inactive) | 25.9 µM (inactive) | 52.7 µM (inactive) | 53.8 µM (inactive) | 68.5 µM (inactive) |  | 34.8 µM (inactive) | 31.7 µM (inactive) |
| C[C@H]1COC2(c3ccccc3)CCC(=O)N12 (stereo partly drawn) | > 100 µM (inactive) | > 100 µM (inactive) |  | > 100 µM (inactive) | > 100 µM (inactive) | > 100 µM (inactive) | > 100 µM (inactive) | > 100 µM (inactive) | > 100 µM (inactive) | > 100 µM (inactive) | > 100 µM (inactive) | > 100 µM (inactive) | > 100 µM (inactive) |  | > 100 µM (inactive) |  | > 100 µM (inactive) | > 100 µM (inactive) | > 100 µM (inactive) | > 100 µM (inactive) |
| C=C(Nc1ccc([N+](=O)[O-])cc1[N+](=O)[O-])c1c/c(=N\NC(N)=S)c2ccccc2o1 | 68.7 µM (inactive) | 47.6 µM (inactive) | 42.4 µM (inactive) | 29 µM (inactive) | 33.5 µM (inactive) | 59.4 µM (inactive) | > 100 µM (inactive) | 81.8 µM (inactive) | 56.9 µM (inactive) |  | 89.5 µM (inactive) |  | 70 µM (inactive) | > 100 µM (inactive) | 16.6 µM (inactive) | 40.9 µM (inactive) | 16.9 µM (inactive) | 61.1 µM (inactive) | 39.5 µM (inactive) | 37.7 µM (inactive) |
| C/C1=C\[C@@H](C)C[C@@H](C)OC(=O)[C@@H](C)NC(=O)[C@H](Cc2ccc(O)c(Br)c2)N(C)C(=O)CNC(=O)[C@H](C)C1 | 0.117 µM (active) | 0.119 µM (active) | 0.143 µM (active) | < 0.01 µM (active) | < 0.01 µM (active) |  |  |  | 13 µM (inactive) | < 0.01 µM (active) | < 0.01 µM (active) | < 0.01 µM (active) | < 0.01 µM (active) | < 0.0202 µM (active) | < 0.01 µM (active) | 0.0366 µM (active) |  | < 0.01 µM (active) | 0.0114 µM (active) | < 0.01 µM (active) |
| C[C@H]1C(=O)O[C@@H]2CCN3CC=C(COC(=O)[C@](C)(O)[C@@]1(C)O)[C@H]23 | > 100 µM (inactive) | > 100 µM (inactive) | > 100 µM (inactive) | > 100 µM (inactive) | > 100 µM (inactive) | > 100 µM (inactive) | > 100 µM (inactive) | > 100 µM (inactive) | > 100 µM (inactive) | > 100 µM (inactive) | > 100 µM (inactive) | > 100 µM (inactive) | > 100 µM (inactive) | > 100 µM (inactive) | > 100 µM (inactive) | > 100 µM (inactive) |  | > 100 µM (inactive) | > 100 µM (inactive) | > 100 µM (inactive) |
| CCCCCNC(=O)c1c(O)[nH]c(=S)[nH]c1=O |  | > 100 µM (inactive) | > 100 µM (inactive) | > 100 µM (inactive) | > 100 µM (inactive) | > 100 µM (inactive) | > 100 µM (inactive) | > 100 µM (inactive) | > 100 µM (inactive) | > 100 µM (inactive) | > 100 µM (inactive) | > 100 µM (inactive) | > 100 µM (inactive) | > 100 µM (inactive) | > 100 µM (inactive) |  | > 100 µM (inactive) | 66.8 µM (inactive) | 78.2 µM (inactive) | > 100 µM (inactive) |
| COc1ccc(-c2c(-c3ccccc3)c(C)nc3nc(SC)nc(SC)c23)cc1OC | 15.6 µM (inactive) | 7.4 µM (inactive) | 5.81 µM (inactive) | 4.39 µM (inactive) | 11.6 µM (inactive) | 18.1 µM (inactive) | 11.3 µM (inactive) | 28.8 µM (inactive) | 12.4 µM (inactive) | 2.82 µM (inactive) | 19.9 µM (inactive) | 4.54 µM (inactive) | 9.08 µM (inactive) | 22.8 µM (inactive) | 5.2 µM (inactive) |  | 0.565 µM (active) | 9.1 µM (inactive) | 7.55 µM (inactive) | 4.76 µM (inactive) |
| O=c1[nH]c2ccccc2n1CCCN1CCC(n2c(=O)[nH]c3cc(Cl)ccc32)CC1 [DOMPERIDONE] | 22.8 µM (inactive) | 16.3 µM (inactive) | 13.9 µM (inactive) | 22.2 µM (inactive) | 12.7 µM (inactive) | 16.9 µM (inactive) | 18.3 µM (inactive) | 17.3 µM (inactive) | 20.2 µM (inactive) | 20.1 µM (inactive) | 18.8 µM (inactive) | 21.4 µM (inactive) | 18.3 µM (inactive) | 16 µM (inactive) |  | 23.3 µM (inactive) |  |  |  | 14.6 µM (inactive) |
| Cc1c(/C=N/NC(=O)c2ccccc2O)c(=O)n(-c2ccccc2)n1C | 49.2 µM (inactive) | > 100 µM (inactive) | 72.6 µM (inactive) | > 100 µM (inactive) | > 100 µM (inactive) | > 100 µM (inactive) | > 100 µM (inactive) | > 100 µM (inactive) |  | 48.2 µM (inactive) | > 100 µM (inactive) | > 100 µM (inactive) | 58.3 µM (inactive) | > 100 µM (inactive) | > 100 µM (inactive) |  | 45.8 µM (inactive) | > 100 µM (inactive) | > 100 µM (inactive) |  |
| CC(=O)C(/N=N\C1CCC(S(=O)(=O)NB2N=CS2)CC1)C(=O)Nc1ccccc1C (stereo not drawn) | 19.3 µM (inactive) | 17.4 µM (inactive) | 18.3 µM (inactive) | 19.2 µM (inactive) | 20.9 µM (inactive) | 16 µM (inactive) | 17.9 µM (inactive) | 13.6 µM (inactive) | 19.8 µM (inactive) | 31.1 µM (inactive) | 12.2 µM (inactive) | > 100 µM (inactive) | 20 µM (inactive) | 19.2 µM (inactive) | 17.7 µM (inactive) |  | 43.7 µM (inactive) | 13.7 µM (inactive) | 17 µM (inactive) | 12.6 µM (inactive) |
